Legend:
PC3 cells = assay: PC3 proliferation/viability; type: cell-based, human; details: up to 10 times the IC50 required to reduce AR-dependent proliferation; 3 days
PRβ = target: T1, PRβ (Homo sapiens, UniProt P06401); assay: PR transcriptional activity, PRE luciferase reporter; type: cell-based; details: 2 μM; progesterone 10 nM
T1 sequence (P06401 1-933): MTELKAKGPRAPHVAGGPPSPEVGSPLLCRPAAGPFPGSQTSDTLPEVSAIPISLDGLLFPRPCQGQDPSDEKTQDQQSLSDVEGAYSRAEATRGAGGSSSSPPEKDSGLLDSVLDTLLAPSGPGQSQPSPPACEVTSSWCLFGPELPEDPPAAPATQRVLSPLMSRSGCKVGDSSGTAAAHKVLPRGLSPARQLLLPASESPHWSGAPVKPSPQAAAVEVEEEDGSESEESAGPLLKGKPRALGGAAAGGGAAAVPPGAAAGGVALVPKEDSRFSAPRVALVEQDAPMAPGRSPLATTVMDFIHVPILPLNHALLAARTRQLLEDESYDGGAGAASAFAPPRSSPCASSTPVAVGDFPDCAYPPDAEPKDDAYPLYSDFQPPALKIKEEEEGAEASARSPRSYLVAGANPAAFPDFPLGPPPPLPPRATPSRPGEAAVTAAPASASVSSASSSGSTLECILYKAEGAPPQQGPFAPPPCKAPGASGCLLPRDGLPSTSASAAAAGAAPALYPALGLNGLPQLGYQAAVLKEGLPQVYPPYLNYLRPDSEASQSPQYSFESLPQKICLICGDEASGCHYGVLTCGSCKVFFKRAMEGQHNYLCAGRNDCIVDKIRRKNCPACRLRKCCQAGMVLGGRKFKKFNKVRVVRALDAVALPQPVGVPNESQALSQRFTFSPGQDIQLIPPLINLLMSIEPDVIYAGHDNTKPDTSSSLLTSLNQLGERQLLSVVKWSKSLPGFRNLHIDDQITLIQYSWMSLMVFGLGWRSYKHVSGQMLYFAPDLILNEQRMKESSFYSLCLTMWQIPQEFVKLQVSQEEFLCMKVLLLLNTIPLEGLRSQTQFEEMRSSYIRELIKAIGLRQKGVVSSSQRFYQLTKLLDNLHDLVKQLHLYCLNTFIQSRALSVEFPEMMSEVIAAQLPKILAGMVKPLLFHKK

GR LBD = target: T2, GR LBD (Homo sapiens, UniProt P04150); assay: Fluorescence polarization competition binding, GR LBD
T2 sequence (P04150 524-758 limits assumed): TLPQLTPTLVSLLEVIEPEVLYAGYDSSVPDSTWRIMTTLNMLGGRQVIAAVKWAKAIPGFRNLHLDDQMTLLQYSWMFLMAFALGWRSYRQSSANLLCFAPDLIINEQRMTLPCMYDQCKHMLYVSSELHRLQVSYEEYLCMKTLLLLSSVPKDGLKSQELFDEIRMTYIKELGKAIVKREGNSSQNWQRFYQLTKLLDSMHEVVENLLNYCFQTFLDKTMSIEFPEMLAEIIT

recombinant AR LBD = target: T3, recombinant AR LBD (Homo sapiens, UniProt P10275); assay: Fluorescence polarization competition binding, AR LBD; details: 1 nM fluorescently labeled ligand, AR LBD 25 nM
T3 sequence (P10275 669-900 limits assumed): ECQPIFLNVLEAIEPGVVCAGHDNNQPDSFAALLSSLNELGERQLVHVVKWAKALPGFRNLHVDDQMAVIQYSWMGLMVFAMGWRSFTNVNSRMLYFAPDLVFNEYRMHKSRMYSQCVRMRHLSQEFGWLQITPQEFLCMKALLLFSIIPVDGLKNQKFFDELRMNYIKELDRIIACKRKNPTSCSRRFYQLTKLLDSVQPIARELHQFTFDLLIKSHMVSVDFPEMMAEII

full-length AR and V7 = assay: Probasin luciferase activity in LNCaP cells, full-length AR and V7; details: I-EPI-002 2 μM, enzalutamide 5 μM; presence or absence of androgen
[1] = target: T4, endogenous full-length AR (Homo sapiens, UniProt P10275, T878A); assay: Probasin luciferase activity in LNCaP cells, endogenous full-length AR; details: I-EPI-002 2 μM, enzalutamide 5 μM; R1881 1 nM 24 hours
T4 sequence (P10275 1-920 T878A): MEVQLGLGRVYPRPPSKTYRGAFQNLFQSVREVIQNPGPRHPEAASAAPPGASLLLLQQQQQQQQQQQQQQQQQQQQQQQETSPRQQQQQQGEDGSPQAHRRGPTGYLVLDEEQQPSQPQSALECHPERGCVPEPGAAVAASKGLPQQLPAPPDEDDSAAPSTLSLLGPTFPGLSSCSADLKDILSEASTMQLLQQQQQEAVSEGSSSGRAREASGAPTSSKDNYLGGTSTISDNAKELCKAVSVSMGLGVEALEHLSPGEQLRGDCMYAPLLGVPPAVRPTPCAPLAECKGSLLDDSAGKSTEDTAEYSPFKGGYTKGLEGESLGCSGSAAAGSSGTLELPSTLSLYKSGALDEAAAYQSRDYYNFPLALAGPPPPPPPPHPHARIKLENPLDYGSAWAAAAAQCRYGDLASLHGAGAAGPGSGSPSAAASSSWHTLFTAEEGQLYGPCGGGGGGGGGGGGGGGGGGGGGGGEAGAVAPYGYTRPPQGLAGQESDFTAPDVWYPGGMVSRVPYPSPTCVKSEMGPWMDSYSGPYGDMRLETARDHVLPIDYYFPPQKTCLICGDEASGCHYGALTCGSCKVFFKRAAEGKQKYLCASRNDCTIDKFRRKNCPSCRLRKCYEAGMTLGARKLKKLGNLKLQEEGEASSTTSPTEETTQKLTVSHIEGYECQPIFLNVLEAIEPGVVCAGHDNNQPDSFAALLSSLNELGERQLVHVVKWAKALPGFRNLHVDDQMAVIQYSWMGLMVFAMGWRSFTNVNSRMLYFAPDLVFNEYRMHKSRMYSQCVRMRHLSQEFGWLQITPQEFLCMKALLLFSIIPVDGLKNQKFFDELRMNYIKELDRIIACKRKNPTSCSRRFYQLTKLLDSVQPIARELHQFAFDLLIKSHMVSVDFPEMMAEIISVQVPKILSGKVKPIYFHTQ

Substance: 15-IodoEPI002 [I-EPI-002]
- effect on proliferation or viability of PC3 cells (PC3 cells): no effect
- inhibition of PR transcriptional activity (PRβ): did not inhibit
- competition for ligand binding to GR LBD (GR LBD): did not prevent ligand-binding
- competition with fluoromone for binding to AR LBD (recombinant AR LBD): did not prevent ligand-binding
- inhibition of probasin luciferase activity, full-length AR with V7 (full-length AR and V7): showed good inhibition
- inhibition of probasin luciferase activity, full-length AR [1]: showed good inhibition

Source: paper PMC4980083 (JCI insight, 2016)
